The target in assay [1] is TTK (human) (UniProt P33981). The assay is described as follows: KINOMEscan competition binding. The following applies: for kinase still bound, per cent of control: compound 10.0 µM.
The target in assay [2] is TTK (human) (UniProt P33981). The assay can be described thus: SelectScreen, TR FRET. Background: TR-FRET usually uses a lanthanide donor and a delayed reading to cut background.
The target in assay [3] is TNK1 (human) (UniProt Q13470). The assay can be described thus: KINOMEscan competition binding. Conditions: compound 10.0 µM.
Chain of TNK1 (human) (Q13470 whole entry, looked up): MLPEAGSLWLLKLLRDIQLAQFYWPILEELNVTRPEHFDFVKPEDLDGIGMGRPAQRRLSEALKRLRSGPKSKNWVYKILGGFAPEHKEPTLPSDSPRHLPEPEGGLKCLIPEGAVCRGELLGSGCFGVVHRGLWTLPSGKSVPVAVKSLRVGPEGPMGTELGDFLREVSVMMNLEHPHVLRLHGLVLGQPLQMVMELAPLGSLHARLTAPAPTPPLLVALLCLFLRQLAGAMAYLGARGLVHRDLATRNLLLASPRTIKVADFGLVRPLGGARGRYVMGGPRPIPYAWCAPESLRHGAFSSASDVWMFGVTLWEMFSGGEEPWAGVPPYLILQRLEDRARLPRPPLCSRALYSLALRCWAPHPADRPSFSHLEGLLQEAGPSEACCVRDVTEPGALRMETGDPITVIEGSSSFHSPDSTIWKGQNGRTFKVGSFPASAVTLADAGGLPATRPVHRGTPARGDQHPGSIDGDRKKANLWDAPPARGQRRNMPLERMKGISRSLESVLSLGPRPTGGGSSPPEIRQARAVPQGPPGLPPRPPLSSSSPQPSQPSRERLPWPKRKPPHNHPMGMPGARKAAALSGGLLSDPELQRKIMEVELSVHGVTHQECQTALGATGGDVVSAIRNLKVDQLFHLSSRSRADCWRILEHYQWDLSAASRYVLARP
The target in assay [4] is PTK2 (human) (UniProt Q05397). The assay can be described thus: KINOMEscan competition binding. The following applies: compound 10.0 µM.
In assay [5] the target is PLK1 (human) (UniProt P53350). The assay is described as follows: KINOMEscan competition binding. The following applies: compound 10.0 µM.
In assay [6] the target is PLK3 (human) (UniProt Q9H4B4). The assay is described as follows: KINOMEscan competition binding. The following applies: compound 10.0 µM.
Assay [7] deals with PLK4 (human) (UniProt O00444). The assay is described as follows: KINOMEscan competition binding. Conditions: compound 10.0 µM.
Chain of PLK4 (human) (O00444 whole entry, looked up): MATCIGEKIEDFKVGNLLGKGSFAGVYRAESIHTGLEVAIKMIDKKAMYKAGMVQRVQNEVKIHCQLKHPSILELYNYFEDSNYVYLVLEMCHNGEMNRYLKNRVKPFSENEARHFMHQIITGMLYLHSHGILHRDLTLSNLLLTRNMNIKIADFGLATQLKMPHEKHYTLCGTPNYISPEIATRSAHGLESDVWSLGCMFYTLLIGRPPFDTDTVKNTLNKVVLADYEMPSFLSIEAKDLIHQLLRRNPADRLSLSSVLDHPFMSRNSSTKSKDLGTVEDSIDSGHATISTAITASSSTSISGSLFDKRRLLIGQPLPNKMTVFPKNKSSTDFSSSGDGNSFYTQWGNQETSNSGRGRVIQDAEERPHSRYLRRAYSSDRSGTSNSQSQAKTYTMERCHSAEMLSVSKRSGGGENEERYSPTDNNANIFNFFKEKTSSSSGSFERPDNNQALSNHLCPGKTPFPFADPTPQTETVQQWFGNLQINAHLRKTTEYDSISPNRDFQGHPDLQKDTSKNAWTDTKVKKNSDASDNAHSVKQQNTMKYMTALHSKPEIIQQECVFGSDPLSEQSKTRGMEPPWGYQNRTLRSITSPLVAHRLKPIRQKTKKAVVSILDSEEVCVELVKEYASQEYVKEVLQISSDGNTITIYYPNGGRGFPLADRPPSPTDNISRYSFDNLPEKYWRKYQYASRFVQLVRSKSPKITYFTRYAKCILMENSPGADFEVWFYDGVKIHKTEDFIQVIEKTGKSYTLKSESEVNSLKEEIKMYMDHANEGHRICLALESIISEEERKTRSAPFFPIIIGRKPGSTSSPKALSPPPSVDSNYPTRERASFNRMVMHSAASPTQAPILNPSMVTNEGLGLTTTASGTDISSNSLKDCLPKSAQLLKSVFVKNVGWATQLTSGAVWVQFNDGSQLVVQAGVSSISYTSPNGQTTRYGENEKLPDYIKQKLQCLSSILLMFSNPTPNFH
In assay [8] the target is GAK (human) (UniProt O14976). The assay is described as follows: KINOMEscan competition binding. Conditions: compound 10.0 µM.
Chain of GAK (human) (O14976 whole entry, looked up): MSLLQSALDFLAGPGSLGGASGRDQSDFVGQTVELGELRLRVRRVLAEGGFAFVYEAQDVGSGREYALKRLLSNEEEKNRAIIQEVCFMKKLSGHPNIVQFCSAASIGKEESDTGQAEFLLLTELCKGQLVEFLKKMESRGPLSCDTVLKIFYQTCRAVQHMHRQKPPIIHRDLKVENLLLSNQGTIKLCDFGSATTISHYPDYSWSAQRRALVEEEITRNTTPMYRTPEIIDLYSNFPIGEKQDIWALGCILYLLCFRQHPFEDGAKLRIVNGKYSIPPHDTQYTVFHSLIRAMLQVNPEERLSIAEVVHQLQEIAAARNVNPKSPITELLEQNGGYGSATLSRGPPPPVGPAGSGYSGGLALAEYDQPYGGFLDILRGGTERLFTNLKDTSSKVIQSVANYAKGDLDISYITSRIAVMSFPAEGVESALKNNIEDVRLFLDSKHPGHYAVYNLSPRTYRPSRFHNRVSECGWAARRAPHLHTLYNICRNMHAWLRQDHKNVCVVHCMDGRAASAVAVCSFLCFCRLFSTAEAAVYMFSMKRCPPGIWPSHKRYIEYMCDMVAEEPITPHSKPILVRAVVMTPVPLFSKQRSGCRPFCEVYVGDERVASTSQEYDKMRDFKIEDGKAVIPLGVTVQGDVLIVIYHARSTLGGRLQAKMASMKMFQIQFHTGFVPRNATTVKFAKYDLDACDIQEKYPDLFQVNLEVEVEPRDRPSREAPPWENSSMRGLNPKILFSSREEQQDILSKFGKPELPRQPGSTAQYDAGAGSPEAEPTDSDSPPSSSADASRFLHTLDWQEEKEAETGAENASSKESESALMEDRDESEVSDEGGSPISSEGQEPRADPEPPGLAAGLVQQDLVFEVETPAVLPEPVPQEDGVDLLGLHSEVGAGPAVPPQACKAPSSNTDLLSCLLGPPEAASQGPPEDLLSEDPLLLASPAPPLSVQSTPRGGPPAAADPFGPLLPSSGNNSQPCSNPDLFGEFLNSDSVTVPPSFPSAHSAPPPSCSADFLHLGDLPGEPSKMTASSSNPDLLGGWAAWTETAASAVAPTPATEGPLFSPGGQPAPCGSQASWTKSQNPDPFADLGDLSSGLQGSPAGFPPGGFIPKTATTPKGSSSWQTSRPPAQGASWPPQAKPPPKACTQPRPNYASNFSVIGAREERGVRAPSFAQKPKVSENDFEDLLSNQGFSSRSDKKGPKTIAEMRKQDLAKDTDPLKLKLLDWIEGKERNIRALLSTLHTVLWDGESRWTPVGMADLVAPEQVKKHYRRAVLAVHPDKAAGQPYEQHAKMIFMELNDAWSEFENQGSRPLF
Assay [9] concerns the target PTK2B (human) (UniProt Q14289). The assay is described as follows: KINOMEscan competition binding. Conditions: compound 10.0 µM.
Assay [10] has as its target STK33 (human) (UniProt Q9BYT3). The assay can be described thus: KINOMEscan competition binding. The following applies: compound 10.0 µM.
The target in assay [11] is PIM1 (human) (UniProt P11309). The assay can be described thus: SelectScreen, TR FRET.
For assay [12], the target named is PIM2 (human) (UniProt Q9P1W9). The assay can be described thus: SelectScreen, TR FRET.
For assay [13], the system named is FLT3 (human), P36888 [K663Q]. The assay can be described thus: KINOMEscan competition binding. The following applies: compound 10.0 µM.
Assay [14] concerns the target FLT3 (human) (UniProt P36888). The assay can be described thus: KINOMEscan competition binding. Conditions: compound 10.0 µM.
The test system of assay [15] is KIT (human), P10721 [V559D]. The assay can be described thus: KINOMEscan competition binding. The following applies: compound 10.0 µM.
In assay [16] the target is DCLK2 (human) (UniProt Q8N568). The assay is described as follows: KINOMEscan competition binding. Conditions: compound 10.0 µM.
Chain of DCLK2 (human) (Q8N568 whole entry, looked up): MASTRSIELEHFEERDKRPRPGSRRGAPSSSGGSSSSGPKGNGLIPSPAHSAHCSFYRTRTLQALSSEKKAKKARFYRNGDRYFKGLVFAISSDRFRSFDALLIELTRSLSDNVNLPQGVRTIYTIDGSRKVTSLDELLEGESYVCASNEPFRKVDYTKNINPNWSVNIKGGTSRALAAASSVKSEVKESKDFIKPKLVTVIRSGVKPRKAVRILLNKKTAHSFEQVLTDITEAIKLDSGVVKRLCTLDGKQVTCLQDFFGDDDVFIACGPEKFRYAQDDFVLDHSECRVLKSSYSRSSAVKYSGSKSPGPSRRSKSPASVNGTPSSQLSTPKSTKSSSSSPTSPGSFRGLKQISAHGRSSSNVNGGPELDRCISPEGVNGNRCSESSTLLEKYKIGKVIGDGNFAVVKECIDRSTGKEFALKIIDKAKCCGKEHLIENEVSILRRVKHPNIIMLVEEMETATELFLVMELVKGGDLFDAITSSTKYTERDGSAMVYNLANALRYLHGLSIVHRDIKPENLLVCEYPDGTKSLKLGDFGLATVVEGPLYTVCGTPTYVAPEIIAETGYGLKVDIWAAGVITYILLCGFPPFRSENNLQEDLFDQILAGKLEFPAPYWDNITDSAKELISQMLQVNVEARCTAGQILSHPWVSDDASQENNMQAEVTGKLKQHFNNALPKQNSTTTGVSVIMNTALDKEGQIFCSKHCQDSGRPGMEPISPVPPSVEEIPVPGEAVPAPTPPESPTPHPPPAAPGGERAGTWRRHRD
The target of assay [17] is RPS6KA2 KD2 (human) (UniProt Q15349). The assay is described as follows: KINOMEscan competition binding. The following applies: compound 10.0 µM.
Assay [18] addresses KIT (human) (UniProt P10721). The assay can be described thus: KINOMEscan competition binding. The following applies: compound 10.0 µM.
Assay [19] has as its target PDGFRB (human) (UniProt P09619). The assay is described as follows: KINOMEscan competition binding. Conditions: compound 10.0 µM.
Assay [20] deals with CLK2 (human) (UniProt P49760). The assay can be described thus: KINOMEscan competition binding. The following applies: compound 10.0 µM.
The target of assay [21] is DCLK1 (human) (UniProt O15075). The assay is described as follows: KINOMEscan competition binding. The following applies: compound 10.0 µM.
For assay [22], the target named is MKNK2 (human) (UniProt Q9HBH9). The assay can be described thus: KINOMEscan competition binding. Conditions: compound 10.0 µM.
Assay [23] addresses RIOK1 (human) (UniProt Q9BRS2). The assay is described as follows: KINOMEscan competition binding. Conditions: compound 10.0 µM.
Assay [24] concerns the target BMP2K (human) (UniProt Q9NSY1). The assay is described as follows: KINOMEscan competition binding. The following applies: compound 10.0 µM.
For assay [25], the target named is MYLK4 (human) (UniProt Q86YV6). The assay is described as follows: KINOMEscan competition binding. The following applies: compound 10.0 µM.
Assay [26] has as its target SRPK1 (human) (UniProt Q96SB4). The assay is described as follows: KINOMEscan competition binding. The following applies: compound 10.0 µM.
Assay [27] concerns the target RIOK3 (human) (UniProt O14730). The assay is described as follows: KINOMEscan competition binding. Conditions: compound 10.0 µM.
Assay [28] addresses AAK1 (human) (UniProt Q2M2I8). The assay can be described thus: KINOMEscan competition binding. Conditions: compound 10.0 µM.
The target in assay [29] is STK17A (human) (UniProt Q9UEE5). The assay is described as follows: KINOMEscan competition binding. Conditions: compound 10.0 µM.
Assay [30] addresses TYK2 JH2 pseudokinase (human) (UniProt P29597). The assay is described as follows: KINOMEscan competition binding. The following applies: compound 10.0 µM.
Assay [31] deals with PIM3 (human) (UniProt Q86V86). The assay is described as follows: KINOMEscan competition binding. The following applies: compound 10.0 µM.
The target of assay [32] is SRPK3 (human) (UniProt Q9UPE1). The assay can be described thus: KINOMEscan competition binding. Conditions: compound 10.0 µM.
Assay [33] relates to ABL1 (human), P00519 [F317I]. The assay can be described thus: KINOMEscan competition binding. The following applies: compound 10.0 µM.
The target of assay [34] is FRK (human) (UniProt P42685). The assay is described as follows: KINOMEscan competition binding. The following applies: compound 10.0 µM.
In assay [35] the target is ALK (human) (UniProt Q9UM73). The assay can be described thus: KINOMEscan competition binding. Conditions: compound 10.0 µM.
Assay [36] deals with ULK2 (human) (UniProt Q8IYT8). The assay is described as follows: KINOMEscan competition binding. Conditions: compound 10.0 µM.
Assay [37] concerns the target MAPK7 (human) (UniProt Q13164). The assay can be described thus: KINOMEscan competition binding. Conditions: compound 10.0 µM.
The target in assay [38] is ROS1 (human) (UniProt P08922). The assay can be described thus: KINOMEscan competition binding. The following applies: compound 10.0 µM.
In assay [39] the target is TNK2 (human) (UniProt Q07912). The assay can be described thus: KINOMEscan competition binding. The following applies: compound 10.0 µM.
Assay [40] has as its target MAP2K3 (human) (UniProt P46734). The assay is described as follows: KINOMEscan competition binding. The following applies: compound 10.0 µM.
Assay [41] deals with CAMKK2 (human) (UniProt Q96RR4). The assay is described as follows: KINOMEscan competition binding. The following applies: compound 10.0 µM.
Assay [42] deals with RIOK2 (human) (UniProt Q9BVS4). The assay is described as follows: KINOMEscan competition binding. Conditions: compound 10.0 µM.
Assay [43] concerns the target MYLK (human) (UniProt Q15746). The assay can be described thus: KINOMEscan competition binding. The following applies: compound 10.0 µM.
Assay [44] has as its target STK17B (human) (UniProt O94768). The assay can be described thus: KINOMEscan competition binding. Conditions: compound 10.0 µM.

Chain of STK33 (human) (Q9BYT3 whole entry, looked up): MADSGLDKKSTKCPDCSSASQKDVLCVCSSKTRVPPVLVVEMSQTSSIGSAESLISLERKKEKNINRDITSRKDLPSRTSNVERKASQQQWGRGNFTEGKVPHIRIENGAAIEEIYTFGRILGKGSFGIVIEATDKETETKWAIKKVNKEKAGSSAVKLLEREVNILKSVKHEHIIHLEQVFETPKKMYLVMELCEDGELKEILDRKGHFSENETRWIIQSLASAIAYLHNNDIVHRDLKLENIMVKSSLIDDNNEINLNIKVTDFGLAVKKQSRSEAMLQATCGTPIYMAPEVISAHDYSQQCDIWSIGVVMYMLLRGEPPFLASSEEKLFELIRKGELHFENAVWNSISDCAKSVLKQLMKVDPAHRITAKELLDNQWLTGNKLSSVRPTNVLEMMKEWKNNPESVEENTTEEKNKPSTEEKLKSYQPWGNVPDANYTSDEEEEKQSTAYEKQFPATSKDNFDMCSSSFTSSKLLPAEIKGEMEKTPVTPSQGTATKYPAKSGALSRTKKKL
Chain of TTK (human) (P33981 whole entry, looked up): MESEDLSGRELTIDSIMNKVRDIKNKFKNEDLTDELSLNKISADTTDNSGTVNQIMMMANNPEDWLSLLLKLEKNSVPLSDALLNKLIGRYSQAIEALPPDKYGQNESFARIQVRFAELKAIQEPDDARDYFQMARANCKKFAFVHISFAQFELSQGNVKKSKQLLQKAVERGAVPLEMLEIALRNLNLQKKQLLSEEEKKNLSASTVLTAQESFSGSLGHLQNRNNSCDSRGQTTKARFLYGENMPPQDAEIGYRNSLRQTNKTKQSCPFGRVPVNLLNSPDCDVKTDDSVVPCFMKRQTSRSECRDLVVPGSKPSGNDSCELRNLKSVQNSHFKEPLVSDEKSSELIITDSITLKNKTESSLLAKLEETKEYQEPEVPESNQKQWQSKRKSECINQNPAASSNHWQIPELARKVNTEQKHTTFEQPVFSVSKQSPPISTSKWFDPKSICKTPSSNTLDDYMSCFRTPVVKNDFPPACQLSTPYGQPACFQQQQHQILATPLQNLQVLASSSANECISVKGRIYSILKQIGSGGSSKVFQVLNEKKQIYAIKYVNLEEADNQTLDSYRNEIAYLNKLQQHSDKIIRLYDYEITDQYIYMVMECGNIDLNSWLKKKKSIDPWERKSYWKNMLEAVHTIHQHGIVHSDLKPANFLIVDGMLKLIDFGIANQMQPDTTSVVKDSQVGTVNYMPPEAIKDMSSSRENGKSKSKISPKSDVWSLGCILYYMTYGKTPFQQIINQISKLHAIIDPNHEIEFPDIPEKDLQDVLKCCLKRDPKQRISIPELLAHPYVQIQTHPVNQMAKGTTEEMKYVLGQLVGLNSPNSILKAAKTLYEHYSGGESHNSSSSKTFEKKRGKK

On to `CC[C@@H]1C(=O)N(C)c2cnc(Nc3ccc(N(C)CCCO)cc3OC)nc2N1C1CCCC1`, for which the Kd in [1] stood at 3100 nM. Further, in assay [2], the IC50 was greater than 10000 nM.
`COc1cc(N(C)CCCO)ccc1Nc1ncc2c(n1)N(C1CCCC1)CCC(=O)N2C`: the kinase still bound, per cent of control is 31% in assay [3]; 16% in assay [4]; 1.7% in assay [5]; 0% in assay [6]; 2.6% in [1]; 12% in [7]. Besides, the kinase still bound, per cent of control in assay [8] is 1.9%; in assay [9], 29%; in assay [10], 11%. The same compound had a Kd in [1] of 58.8 nM. This compound yielded an IC50 in [2] of 640 nM.
Consider `O=C1NC(=S)S/C1=C\c1ccc(-c2cccc3cc[nH]c23)o1`, for which the half-maximal inhibitory concentration (IC50) in assay [11] stood at 905 nM; in assay [12] it was 509 nM; in assay [2] it was 145 nM.
As to `CCN1C(=O)CCN(C2CCCC2)c2nc(Nc3ccc(N4CCC(O)CC4)cn3)ncc21`, the kinase still bound, per cent of control in assay [13] came to 27%; in assay [5] it was 1.8%; in assay [14] it was 31%; in assay [15] it was 31%; in [1], 2%; in [7], 24%. The kinase still bound, per cent of control in assay [16] amounted to 30%; in assay [8], 16%; in assay [17], 32%; in [18], 33%; in assay [19] it was 11%; in assay [10], 23%. Further, the kinase still bound, per cent of control in assay [20] was 33%; in assay [21], 8.2%. In assay [1], this compound yielded a Kd of 582 nM. In [2], this compound registered a concentration for half-maximal inhibition (IC50) of 3450 nM.
As for `CC[C@@H]1C(=O)N(C)c2cnc(Nc3ccc(N4CCCC(O)C4)cc3OC)nc2N1C1CCCC1` (stereo partly drawn), in assay [1], the Kd was determined as 2650 nM. This compound also came in with an IC50 in assay [2] greater than 10000 nM.
In assay [1], `CCOc1cc(N2CCC(O)CC2)ccc1Nc1ncc2c(n1)N(C1CCCC1)CCC(=O)N2` yielded a Kd of 650 nM. This compound also yielded an IC50 in assay [2] of 7450 nM.
On to `CC[C@@H]1C(=O)N(C)c2cnc(Nc3ccc(N4CCC(O)CC4)cc3OC)nc2N1C1CCCC1`, for which, in assay [1], the Kd was 1410 nM. This compound came in with an IC50 in assay [2] greater than 10000 nM.
Take `NS(=O)(=O)c1ccc(-c2ccc(/C=C3\C(=O)Nc4cccc(Br)c43)o2)cc1`: the kinase still bound, per cent of control in [1] stood at 28%; in assay [22], 34%; in [23], 15%; in assay [24], 34%; in [25], 1.8%; in [26] it was 16%. For the same compound, the kinase still bound, per cent of control in [27] came out at 17%.
Turning to `NS(=O)(=O)c1ccc(-c2ccc(/C=C3\C(=O)Nc4ccccc43)o2)cc1`, the kinase still bound, per cent of control came to 23% in assay [28]; 12% in [29]; 24% in assay [30]; 11% in [23]; 28% in [31]; 7.7% in assay [24]. In addition, the kinase still bound, per cent of control in assay [25] was determined as 3.1%; in [26] it was 12%; in [32] it was 26%; in assay [20], 25%; in [27], 6.2%.
With `COc1cc(N2CCN(C)CC2)ccc1Nc1ncc2c(n1)N(C(C)C)c1ccccc1C(=O)N2C`, the kinase still bound, per cent of control is 3.8% in assay [3]; 18% in assay [4]; 22% in assay [33]; 31% in assay [34]; 14% in assay [35]; 25% in assay [36]. The kinase still bound, per cent of control was found to be 25% in [5]; 0% in assay [37]; 8% in [1]; 0.15% in assay [7]; 1.2% in assay [16]; 9.2% in assay [38]. The kinase still bound, per cent of control in assay [39] worked out at 27%; in assay [21], 1.2%.
For `CC[C@@H]1C(=O)N(C)c2cnc(Nc3ccc(N(C)CCO)cc3OC)nc2N1C1CCCC1`, the Kd in assay [1] worked out at 4700 nM. This compound displayed an IC50 in [2] greater than 10000 nM.
On to `CCN1C(=O)CCN(C2CCCC2)c2nc(Nc3ccc(N4CCC(O)CC4)cc3OC(C)C)ncc21`, for which the kinase still bound, per cent of control in assay [5] turned out to be 4.1%; in assay [1], 1.9%; in assay [17] it was 12%. The Kd in [1] was 253 nM. The compound further had an IC50 in assay [2] of 1090 nM.
Consider `COc1cc(C(=O)NC2CCC(O)CC2)ccc1Nc1ncc2c(n1)N(C1CCCC1)[C@@H]1CCC[C@@H]1C(=O)N2C` (stereo partly drawn), for which the kinase still bound, per cent of control in assay [3] turned out to be 14%; in assay [5], 0%; in assay [6], 0.9%; in assay [37], 14%; in [1], 32%; in [29] it was 0%. In addition, the kinase still bound, per cent of control in [40] was 0.3%; in assay [7] it was 4.3%; in [41], 27%; in assay [42] it was 0.5%; in assay [16], 17%; in [8], 28%. Also, the kinase still bound, per cent of control in assay [43] is 1.7%; in assay [44] it was 0%; in assay [10], 34%; in assay [21], 8.2%.

What is called Kd is the constant that tells how readily two partners part at equilibrium. Lower therefore signals higher affinity. By IC50 is commonly meant the concentration at which inhibition is half-maximal.

The values are drawn from the kinase profiling compilation of Christmann-Franck et al. (2016).
